Assay results: ChEMBL document CHEMBL1137013, “Discovery of (2R)-2-(3-{3-[(4-Methoxyphenyl)carbonyl]-2-methyl-6-(trifluoromethoxy)-1H-indol-1-yl}phenoxy)butanoic acid (MK-0533): a novel selective peroxisome proliferator-activated receptor gamma modulator for the treatment of type 2 diabetes mellitus with a reduced potential to increase plasma …” (J Med Chem, 2009)
The source made the active and inactive calls. No cut-off for these calls is given here.

Legend:
[1] = test system: Liver; experiment: Protein binding in rat liver assessed per mg of protein; type: ADME, tissue-based
[2] = test system: Plasma; experiment: Protein binding in rat plasma assessed per mg of protein; type: ADME, cell-free
[3] = molecular target: T1, Peroxisome proliferator-activated receptor alpha (Homo sapiens, UniProt Q07869); experiment: Displacement of [3H2]nTZD3 from human recombinant GST-fused PPARalpha expressed in Escherichia coli by scintillation proximity assay
T1 sequence (Q07869 whole entry): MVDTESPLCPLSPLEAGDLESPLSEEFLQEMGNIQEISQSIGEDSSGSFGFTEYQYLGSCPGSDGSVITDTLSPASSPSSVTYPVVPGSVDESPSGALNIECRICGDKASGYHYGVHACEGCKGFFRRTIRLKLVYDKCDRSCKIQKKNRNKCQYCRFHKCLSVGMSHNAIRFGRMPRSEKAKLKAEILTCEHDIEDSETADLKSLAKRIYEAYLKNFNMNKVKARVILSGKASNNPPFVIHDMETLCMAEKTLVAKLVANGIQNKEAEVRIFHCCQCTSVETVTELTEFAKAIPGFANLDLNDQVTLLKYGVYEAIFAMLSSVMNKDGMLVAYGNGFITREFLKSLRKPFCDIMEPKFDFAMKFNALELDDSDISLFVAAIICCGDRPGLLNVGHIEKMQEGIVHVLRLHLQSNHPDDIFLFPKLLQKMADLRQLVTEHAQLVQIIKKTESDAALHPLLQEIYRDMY

[4] = test system: Cricetinae; experiment: Agonist activity at hamster PPARalpha at 3000 nM; type: functional
[5] = molecular target: T2, Peroxisome proliferator-activated receptor alpha (Mus musculus, UniProt P23204); experiment: Agonist activity at mouse PPARalpha; type: functional; settings: read-out: EC50
T2 sequence (P23204 whole entry): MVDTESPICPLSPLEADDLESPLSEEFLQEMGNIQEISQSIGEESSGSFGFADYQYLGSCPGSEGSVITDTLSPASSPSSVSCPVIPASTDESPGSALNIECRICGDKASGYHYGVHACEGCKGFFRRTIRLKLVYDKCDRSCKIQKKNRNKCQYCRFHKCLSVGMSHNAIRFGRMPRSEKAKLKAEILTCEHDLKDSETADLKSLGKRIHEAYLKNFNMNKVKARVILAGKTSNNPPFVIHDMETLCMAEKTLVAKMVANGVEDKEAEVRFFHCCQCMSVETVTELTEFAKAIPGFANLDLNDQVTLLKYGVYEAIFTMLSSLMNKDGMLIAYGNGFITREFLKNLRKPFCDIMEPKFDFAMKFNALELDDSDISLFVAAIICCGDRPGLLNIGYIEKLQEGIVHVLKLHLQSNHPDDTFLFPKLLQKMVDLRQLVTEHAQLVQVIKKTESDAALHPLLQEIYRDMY

[6] = Terminal half life in rat; type: ADME, organism-based; settings: in vivo, read-out: beta t1/2 (converted)
[7] = Cmax in rat; type: ADME, organism-based; settings: in vivo
[8] = Plasma clearance in dog; type: ADME, organism-based, Canis lupus familiaris
[9] = Terminal half life in dog; type: ADME, organism-based, Canis lupus familiaris; settings: in vivo, read-out: beta t1/2 (converted)
[10] = Cmax in dog; type: ADME, organism-based, Canis lupus familiaris; settings: in vivo
[11] = Oral bioavailability in monkey; type: ADME, organism-based, Macaca mulatta; settings: rhesus monkey, in vivo
[12] = Terminal half life in monkey; type: ADME, organism-based, Macaca mulatta; settings: rhesus monkey, in vivo; read-out: beta t1/2 (converted)
[13] = Cmax in monkey; type: ADME, organism-based, Macaca mulatta; settings: rhesus monkey, in vivo
[14] = test system: Rattus norvegicus; experiment: Toxicity in Sprague-Dawley rat assessed as heart weight at 300 mg/kg dosed daily for 2 weeks; type: organism-based; set-up: dose 300 mg/kg; settings: in vivo, 336 h
[15] = test system: Rattus norvegicus; experiment: Toxicity in Sprague-Dawley rat assessed as liver weight at 300 mg/kg dosed daily for 2 weeks; type: organism-based; set-up: dose 300 mg/kg; settings: in vivo, 336 h
[16] = test system: Rattus norvegicus; experiment: Toxicity in Sprague-Dawley rat assessed as brown adipose tissue weight at 300 mg/kg dosed daily for 2 weeks; type: organism-based; set-up: dose 300 mg/kg; settings: in vivo, 336 h
[17] = AUC in Sprague-Dawley rat at 300 mg/kg dosed daily for 2 weeks; type: ADME, organism-based; set-up: dose 300 mg/kg; settings: plasma
[18] = test system: Rattus norvegicus; experiment: Antidiabetic activity in obese insulin-resistant Zucker fa/fa rat assessed as decrease in plasma free fatty acid level at 3 to 150 mg/kg, po once daily for 7 days; type: functional, organism-based
[19] = AUC in obese insulin-resistant Zucker fa/fa rat at 100 mg/kg, po once daily for 7 days; type: ADME, organism-based; set-up: dose 100 mg/kg, route oral; settings: plasma
[20] = AUC in obese insulin-resistant Zucker fa/fa rat at 30 mg/kg, po once daily for 7 days; type: ADME, organism-based; set-up: dose 30 mg/kg, route oral; settings: plasma
[21] = AUC in obese insulin-resistant Zucker fa/fa rat at 150 mg/kg, po once daily for 7 days; type: ADME, organism-based; set-up: dose 150 mg/kg, route oral; settings: plasma
[22] = test system: Rattus norvegicus; experiment: Toxicity in obese insulin-resistant Zucker fa/fa rat assessed as increase in plasma volume at 30 mg/kg, po once daily for 7 days by Evans blue dye dilution technique; type: organism-based; set-up: dose 30 mg/kg, route oral; settings: in vivo, 168 h
[23] = molecular target: T3, Peroxisome proliferator-activated receptor alpha (Canis lupus familiaris) (UniProt Q95N78); experiment: Agonist activity at dog PPARalpha at 3000 nM; type: functional
T3 sequence (whole entry): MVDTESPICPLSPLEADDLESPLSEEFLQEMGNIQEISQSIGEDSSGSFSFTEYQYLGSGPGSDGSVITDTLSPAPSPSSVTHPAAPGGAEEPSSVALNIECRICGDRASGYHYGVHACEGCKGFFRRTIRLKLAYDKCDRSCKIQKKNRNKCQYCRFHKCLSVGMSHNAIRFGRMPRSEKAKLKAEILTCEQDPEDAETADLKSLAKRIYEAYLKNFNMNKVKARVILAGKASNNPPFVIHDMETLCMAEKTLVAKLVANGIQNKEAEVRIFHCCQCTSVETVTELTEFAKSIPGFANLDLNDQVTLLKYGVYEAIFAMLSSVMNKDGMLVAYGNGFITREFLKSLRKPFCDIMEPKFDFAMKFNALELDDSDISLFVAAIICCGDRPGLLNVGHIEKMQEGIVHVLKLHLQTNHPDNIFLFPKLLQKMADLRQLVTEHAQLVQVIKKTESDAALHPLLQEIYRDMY

[24] = Inhibition of CYP450; type: ADME
[25] = molecular target: T4, Peroxisome proliferator-activated receptor gamma (Homo sapiens, UniProt P37231)
T4 sequence (P37231 whole entry): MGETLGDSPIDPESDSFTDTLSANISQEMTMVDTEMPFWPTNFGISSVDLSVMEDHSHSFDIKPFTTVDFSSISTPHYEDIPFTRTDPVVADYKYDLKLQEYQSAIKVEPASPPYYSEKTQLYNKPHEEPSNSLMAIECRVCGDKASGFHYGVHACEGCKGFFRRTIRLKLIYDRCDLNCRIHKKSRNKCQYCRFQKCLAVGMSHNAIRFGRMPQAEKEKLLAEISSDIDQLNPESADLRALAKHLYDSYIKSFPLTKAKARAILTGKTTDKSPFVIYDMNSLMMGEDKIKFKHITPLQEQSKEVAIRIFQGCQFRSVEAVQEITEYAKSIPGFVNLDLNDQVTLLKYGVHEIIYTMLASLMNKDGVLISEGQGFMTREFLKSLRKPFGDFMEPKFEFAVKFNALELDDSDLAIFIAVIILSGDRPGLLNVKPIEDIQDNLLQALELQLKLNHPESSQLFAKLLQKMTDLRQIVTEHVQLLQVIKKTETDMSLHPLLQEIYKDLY
Description: Displacement of [3H2]nTZD3 from human recombinant GST-fused PPARgamma expressed in Escherichia coli by scintillation proximity assay

CC[C@@H](Oc1cccc(-n2c(C)c(C(=O)c3ccc(OC)cc3)c3ccc(OC(F)(F)F)cc32)c1)C(=O)O [MK-0533]
PB [1]: < 10 pmol | PPB [2]: < 10 pmol | IC50 [3]: > 50 µM | Activity [4]: 52% | EC50 [5]: 240 nM | half-life [6]: 96 min | Cmax [7]: 1000 nM | clearance [8]: 7.5 mL/min/kg | half-life [9]: 216 min | Cmax [10]: 2400 nM | bioavailability [11]: 25% | half-life [12]: 192 min | Cmax [13]: 500 nM | Activity [14]: 1.1 g | Activity [15]: 19.7 g | Activity [16]: 537 mg | AUC at 336 h [17]: 954 µM·h | Activity [18]: Active | AUC at 168 h [19]: 1480 µM·h | AUC at 168 h [20]: 115 µM·h | AUC at 168 h [21]: 4520 µM·h | Activity [22]: Non-toxic | Activity [23]: 35% | INH [24]: > 10 µM | IC50 [25]: 9 nM
